Experimental data taken from paper PMC9864776, “Synthesis of Novel Polymer-Assisted Organic-Inorganic Hybrid Nanoflowers and Their Application in Cascade Biocatalysis” (Molecules, 2023).

Molecular target: T1, horseradish peroxidase (HRP) (Armoracia rusticana, UniProt P00433)
T1 construct: gene PRXC1A; commercial native enzyme from horseradish, Alfa Aesar; free in solution, together with GOx
T1 sequence (P00433 31-338): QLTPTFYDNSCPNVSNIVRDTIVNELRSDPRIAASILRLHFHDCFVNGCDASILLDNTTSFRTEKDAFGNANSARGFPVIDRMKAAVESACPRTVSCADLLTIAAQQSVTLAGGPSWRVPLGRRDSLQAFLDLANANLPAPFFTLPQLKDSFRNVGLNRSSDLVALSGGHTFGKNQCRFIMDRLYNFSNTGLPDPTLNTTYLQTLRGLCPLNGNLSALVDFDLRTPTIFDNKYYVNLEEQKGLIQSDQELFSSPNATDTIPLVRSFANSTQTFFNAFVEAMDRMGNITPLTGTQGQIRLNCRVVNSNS
Experiment: GOx/HRP cascade, TMB oxidation by H2O2 formed by GOx, absorbance at […] nm
Assay type: biochemical
Conditions: H2O2 from GOx and glucose, 0.2 M acetate buffer pH 4, 20-23 °C; free enzymes

SMILES: Cc1cc(-c2cc(C)c(N)c(C)c2)cc(C)c1N [TMB, 3,3′,5,5′-tetramethylbenzidine]
- GOx/HRP cascade, TMB oxidation by H2O2 formed by GOx, absorbance at 652 nm: the HRP used this H2O2 to oxidize a chromophore compound (TMB)
